Results: ChEMBL document CHEMBL5346961, “Discovery and Evaluation of 3-Quinoxalin Urea Derivatives as Potent, Selective, and Orally Available ATM Inhibitors Combined with Chemotherapy for the Treatment of Cancer via Goal-Oriented Molecule Generation and Virtual Screening” (J Med Chem, 2023)
The source made the active and inactive calls. The calls are words filed in the database; no cut-off is given here.

How the values were obtained:
MCF7 [1] = assay: cells; settings: Homo sapiens, MCF7, 144 h
HCT-116 [2] = assay: Antiproliferative activity against human HCT-116 cells assessed as cell survival at 1 uM incubated for 6 days by MTT assay relative to control; type: functional; settings: HCT-116, 144 h, time 6 day, read-out: Survival
[3] = Metabolic stability in human liver microsomes assessed as half life at 1 uM in presence of NADPH-regenerating system by LC-MS/MS analysis; type: ADME, Microsome
HCT-116 [4] = assay: Inhibition of colony formation in human HCT-116 cells preincubated for 1 hr followed by exposure to 2 Gy gamma irradiation and measured after 1 week by crystal violet staining based […] assay; type: functional, cell-based; settings: HCT-116, light or radiation study
[5] = target: T1, Serine-protein kinase ATM (Homo sapiens, UniProt Q13315); assay: Inhibition of ATM (unknown origin) preincubated with compound for 30 mins followed by substrate addition and measured after 2 hrs by HTRF method
T1 sequence (Q13315 whole entry): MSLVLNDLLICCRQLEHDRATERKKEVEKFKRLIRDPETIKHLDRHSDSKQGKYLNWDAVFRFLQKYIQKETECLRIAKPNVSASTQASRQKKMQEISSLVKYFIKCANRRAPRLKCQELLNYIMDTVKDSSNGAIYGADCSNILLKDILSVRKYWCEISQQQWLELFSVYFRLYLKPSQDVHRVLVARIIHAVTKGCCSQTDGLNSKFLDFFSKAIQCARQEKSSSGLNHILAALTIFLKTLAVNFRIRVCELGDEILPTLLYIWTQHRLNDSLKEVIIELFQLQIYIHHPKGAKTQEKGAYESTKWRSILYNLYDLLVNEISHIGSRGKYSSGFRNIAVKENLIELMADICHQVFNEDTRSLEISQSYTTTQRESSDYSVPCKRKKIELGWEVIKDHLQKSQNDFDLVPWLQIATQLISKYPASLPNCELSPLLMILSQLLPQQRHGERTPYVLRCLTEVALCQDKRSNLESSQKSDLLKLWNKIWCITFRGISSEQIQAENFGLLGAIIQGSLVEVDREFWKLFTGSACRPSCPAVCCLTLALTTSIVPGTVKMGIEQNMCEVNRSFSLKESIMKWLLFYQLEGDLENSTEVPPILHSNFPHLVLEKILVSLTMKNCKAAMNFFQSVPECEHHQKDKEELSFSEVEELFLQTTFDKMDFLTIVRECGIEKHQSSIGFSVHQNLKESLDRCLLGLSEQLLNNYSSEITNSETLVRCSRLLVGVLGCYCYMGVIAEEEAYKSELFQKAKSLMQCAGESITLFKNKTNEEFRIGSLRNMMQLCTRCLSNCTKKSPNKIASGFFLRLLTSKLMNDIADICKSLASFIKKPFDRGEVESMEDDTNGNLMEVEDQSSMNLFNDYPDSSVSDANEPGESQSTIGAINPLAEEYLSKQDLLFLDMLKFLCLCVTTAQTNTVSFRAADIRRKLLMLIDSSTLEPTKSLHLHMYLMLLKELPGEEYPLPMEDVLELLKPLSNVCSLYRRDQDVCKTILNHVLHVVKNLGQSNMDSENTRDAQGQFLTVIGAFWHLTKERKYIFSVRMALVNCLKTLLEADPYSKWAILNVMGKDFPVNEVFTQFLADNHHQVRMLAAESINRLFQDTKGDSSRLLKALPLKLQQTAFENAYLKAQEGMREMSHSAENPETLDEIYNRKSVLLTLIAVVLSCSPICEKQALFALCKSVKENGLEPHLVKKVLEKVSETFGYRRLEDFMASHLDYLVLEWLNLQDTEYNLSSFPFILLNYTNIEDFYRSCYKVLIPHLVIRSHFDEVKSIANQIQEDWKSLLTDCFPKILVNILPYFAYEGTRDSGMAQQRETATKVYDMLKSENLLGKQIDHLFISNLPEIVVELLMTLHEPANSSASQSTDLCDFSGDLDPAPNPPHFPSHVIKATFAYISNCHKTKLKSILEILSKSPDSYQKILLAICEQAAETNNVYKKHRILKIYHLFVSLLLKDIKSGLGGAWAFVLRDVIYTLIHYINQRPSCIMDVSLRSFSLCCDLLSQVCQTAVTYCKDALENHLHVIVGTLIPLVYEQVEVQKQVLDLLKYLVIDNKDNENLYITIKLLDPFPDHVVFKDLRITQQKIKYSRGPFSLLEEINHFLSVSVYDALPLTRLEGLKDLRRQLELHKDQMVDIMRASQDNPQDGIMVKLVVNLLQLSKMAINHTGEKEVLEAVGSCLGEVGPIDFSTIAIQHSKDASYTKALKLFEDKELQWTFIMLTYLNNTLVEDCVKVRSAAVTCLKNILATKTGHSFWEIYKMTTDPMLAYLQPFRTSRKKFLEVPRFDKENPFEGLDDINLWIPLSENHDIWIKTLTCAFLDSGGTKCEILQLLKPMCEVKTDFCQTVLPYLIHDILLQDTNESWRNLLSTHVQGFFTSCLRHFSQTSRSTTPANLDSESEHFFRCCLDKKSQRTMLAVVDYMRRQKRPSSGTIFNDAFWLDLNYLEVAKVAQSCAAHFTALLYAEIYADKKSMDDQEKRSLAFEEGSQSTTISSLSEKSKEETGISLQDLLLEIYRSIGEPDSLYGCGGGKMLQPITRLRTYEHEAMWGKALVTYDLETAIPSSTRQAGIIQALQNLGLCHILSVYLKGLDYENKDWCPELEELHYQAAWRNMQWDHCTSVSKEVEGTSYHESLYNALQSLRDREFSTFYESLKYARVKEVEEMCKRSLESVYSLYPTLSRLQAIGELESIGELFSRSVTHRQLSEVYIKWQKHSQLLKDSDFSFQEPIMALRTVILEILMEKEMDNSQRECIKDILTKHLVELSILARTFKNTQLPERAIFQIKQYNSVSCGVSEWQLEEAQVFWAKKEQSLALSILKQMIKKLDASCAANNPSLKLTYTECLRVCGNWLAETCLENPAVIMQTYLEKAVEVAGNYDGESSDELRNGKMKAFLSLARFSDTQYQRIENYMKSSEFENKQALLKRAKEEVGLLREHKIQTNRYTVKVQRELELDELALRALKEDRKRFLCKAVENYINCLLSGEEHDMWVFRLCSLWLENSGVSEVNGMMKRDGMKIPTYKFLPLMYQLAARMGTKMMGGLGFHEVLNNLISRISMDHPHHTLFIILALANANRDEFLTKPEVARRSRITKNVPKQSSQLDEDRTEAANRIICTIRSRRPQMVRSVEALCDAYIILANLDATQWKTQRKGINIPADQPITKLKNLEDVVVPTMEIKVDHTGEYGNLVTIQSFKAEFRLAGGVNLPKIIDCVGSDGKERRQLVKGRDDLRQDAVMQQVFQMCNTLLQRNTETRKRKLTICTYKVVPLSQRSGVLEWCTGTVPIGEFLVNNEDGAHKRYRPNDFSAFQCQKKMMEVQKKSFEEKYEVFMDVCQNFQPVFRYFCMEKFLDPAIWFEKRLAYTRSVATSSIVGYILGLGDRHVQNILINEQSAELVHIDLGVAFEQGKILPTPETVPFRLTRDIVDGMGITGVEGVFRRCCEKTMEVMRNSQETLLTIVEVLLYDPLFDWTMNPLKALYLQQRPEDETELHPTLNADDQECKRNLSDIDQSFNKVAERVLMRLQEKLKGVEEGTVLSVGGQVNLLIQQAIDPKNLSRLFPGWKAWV

HCT-116 [6] = assay: Inhibition of colony formation in human HCT-116 cells at 0.01 uM preincubated for 1 hr followed by exposure to 2 Gy gamma irradiation and measured after 1 week by crystal violet staining based […] assay relative to control; type: functional; settings: HCT-116, light or radiation study, time 169 hrs
[7] = target: T2, Serine/threonine-protein kinase ATR (Homo sapiens, UniProt Q13535); assay: Inhibition of ATR (unknown origin) assessed as remaining activity at 1 uM in presence of [gamma33P-ATP] by radiometric assay
[8] = Metabolic stability in human liver microsomes assessed as clearance at 1 uM in presence of NADPH-regenerating system by LC-MS/MS analysis; type: ADME, Microsome
[9] = target: T1, Serine-protein kinase ATM; assay: Inhibition of ATM (unknown origin) assessed as remaining activity at 0.01 uM preincubated with compound for 30 mins followed by substrate addition and measured after 2 hrs by HTRF method relative to control; settings: time 2.5 hrs
[10] = Half life in Balb/C mouse at 10 mg/kg,iv measured upto 48 hrs by LC-MS/MS analysis; type: ADME, organism-based; settings: in vivo
[11] = Half life in Balb/C mouse at 10 mg/kg,po measured upto 48 hrs by LC-MS/MS analysis; type: ADME, organism-based; settings: in vivo
SW-620 [12] = assay: Antiproliferative activity against human SW620 cells assessed as reduction in cell viability incubated for 6 days by MTT assay; type: functional, cell-based; settings: SW-620, 144 h
[13] = Clearance in Balb/C mouse at 10 mg/kg,iv measured upto 48 hrs by LC-MS/MS analysis; type: ADME, organism-based; settings: in vivo
MCF7 [14] = assay: Synergistic antiproliferative activity against human MCF7 cells assessed as fold increase in etoposide IC50 at 200 nM measured after 6 days by MTT assay; type: functional; settings: time 6 day
SW-620 [15] = assay: Antitumor activity against human SW620 cells xenografted in BALB/c nude mouse model assessed as tumor growth inhibition at 40 mg/kg, po administered once daily for 3 days weekly after irinotecan post treatment for 21 days by caliper method relative to control; type: functional; settings: SW-620, 504 h, time 21 day, read-out: TGI
[16] = AUC (0 to t) in Balb/C mouse at 10 mg/kg,po measured upto 48 hrs by LC-MS/MS analysis; type: ADME, organism-based; set-up: dose 10 mg/kg, time < 48 hrs, route po; settings: in vivo
[17] = Cmax in Balb/C mouse at 10 mg/kg,po measured upto 48 hrs by LC-MS/MS analysis; type: ADME, organism-based; set-up: dose 10 mg/kg, time < 48 hrs, route po; settings: in vivo
[18] = Volume of distribution at steady state in Balb/C mouse at 10 mg/kg,iv measured upto 48 hrs by LC-MS/MS analysis; type: ADME, organism-based; settings: in vivo, read-out: Vdss
SW-620 [19] = assay: Synergistic antiproliferative activity against human SW620 cells assessed as fold increase in irinotecan IC50 at 200 nM measured after 6 days by MTT assay; type: functional; settings: time 6 day
[20] = AUC (0 to t) in Balb/C mouse at 10 mg/kg,iv measured upto 48 hrs by LC-MS/MS analysis; type: ADME, organism-based; set-up: time < 48 hrs, dose 10 mg/kg, route iv; settings: in vivo
MCF7 [21] = assay: Synergistic antiproliferative activity against human MCF7 cells assessed as fold increase in irinotecan IC50 at 200 nM measured after 6 days by MTT assay; type: functional; settings: time 6 day
HCT-116 [22] = assay: Induction of DNA damage in human HCT-116 cells assessed as reduction in ATM phosphorylation at S1981 residue at 2 uM measured after 4 hrs by Western blot analysis; type: functional, cell-based
[23] = Clearance in Balb/C mouse at 10 mg/kg,po measured upto 48 hrs by LC-MS/MS analysis; type: ADME, organism-based; settings: in vivo
[24] = Cmax in Balb/C mouse at 10 mg/kg,iv measured upto 48 hrs by LC-MS/MS analysis; type: ADME, organism-based; set-up: time < 48 hrs, dose 10 mg/kg, route iv; settings: in vivo
HCT-116 [25] = assay: Inhibition of colony formation in human HCT-116 cells assessed as assessed as fold change in IC50 in presence of ionizing radiation; type: functional
HCT-116 [26] = assay: Antiproliferative activity against human HCT-116 cells assessed as reduction in cell viability incubated for 6 days by MTT assay; type: functional, cell-based; settings: HCT-116, 144 h
[27] = Tmax in Balb/C mouse at 10 mg/kg,iv measured upto 48 hrs by LC-MS/MS analysis; type: ADME, organism-based; settings: in vivo
HCT-116 [28] = assay: Induction of DNA damage in human HCT-116 cells assessed as reduction in p21 phosphorylation at T145 residue at 2 uM measured after 4 hrs by Western blot analysis; type: functional, cell-based
[29] = Oral bioavailability in Balb/C mouse at 10 mg/kg measured upto 48 hrs by LC-MS/MS analysis; type: ADME, organism-based; settings: in vivo
SW-620 [30] = assay: Synergistic inhibition of colony formation in human SW620 cells assessed as fold increase in irinotecan IC50 at 200 nM preincubated for 1 hr followed by irinotecan addition and measured after 1 week by crystal violet staining based […] assay; type: functional; settings: time 169 hrs
[31] = Tmax in Balb/C mouse at 10 mg/kg,po measured upto 48 hrs by LC-MS/MS analysis; type: ADME, organism-based; settings: in vivo
MCF7 [32] = assay: Antiproliferative activity against human MCF7 cells assessed as reduction in cell viability incubated for 6 days by MTT assay; type: functional, cell-based; settings: MCF7, 144 h
[33] = Volume of distribution at steady state in Balb/C mouse at 10 mg/kg,po measured upto 48 hrs by LC-MS/MS analysis; type: ADME, organism-based; settings: in vivo
[34] = target: T2, Serine/threonine-protein kinase ATR; assay: Inhibition of flag tagged- ATR (unknown origin) expressed in Escherichia coli BL21 incubated for 20 mins in presence of ATP
[35] = Inhibition of PIK3 (unknown origin); set-up: species or system Homo sapiens

## COc1cc([C@@H]2c3cc4c(cc3[C@@H](O[C@@H]3O[C@@H]5CO[C@@H](C)O[C@H]5[C@H](O)[C@H]3O)[C@H]3COC(=O)[C@H]23)OCO4)cc(OC)c1O [ETOPOSIDE]
MCF7 [1]
  IC50: 210 nM

## CCCCNC(=O)N(C)c1cnc2ccc(-c3ccc(OCCCN(C)C)nc3)cc2n1
HCT-116 [2]
  viability at 1 µM: > 83%
[3]
  half-life at 1 µM: 22 min
HCT-116 [4]
  IC50: 7.65 nM
[5]
  IC50: 0.8 nM
HCT-116 [6]
  inhibition at 0.01 µM: 92.7%
[7]
  Activity: 105%
[8]
  CLH: 64 mL/min/g
[9]
  Activity: 3%

## CN(C)CCCOc1ccc(-c2ccc3ncc(N(C)C(=O)NC4CCCC4)nc3c2)cn1
HCT-116 [2]
  viability at 1 µM: > 83%
[3]
  half-life at 1 µM: 22 min
HCT-116 [4]
  IC50: 1.56 nM
[5]
  IC50: 1 nM
HCT-116 [6]
  inhibition at 0.01 µM: 91.9%
[7]
  Activity: 100%
[8]
  CLH: 64 mL/min/g
[9]
  Activity: 2%

## COCc1ccc(-c2ccc3ncc(C(N)=O)c(N[C@@H](C)C4CCOCC4)c3c2)cn1
HCT-116 [2]
  viability at 1 µM: > 83%
[10]
  t1/2: 257 min
[3]
  half-life at 1 µM: 193 min
HCT-116 [4]
  IC50: 20 nM
[11]
  t1/2: 190 min
SW-620 [12]
  IC50: > 9000 nM
[13]
  clearance: 1.32 L/h/kg
MCF7 [14]
  fold change (FC): 1.4
SW-620 [15]
  inhibition in vivo at 40 mg/kg: 77.7%
[16]
  AUCt: 7.39676 µg·h/mL
[17]
  Cmax: 1.36 µg/mL
HCT-116 [6]
  inhibition at 0.01 µM: 13.2%
[18]
  Vd: 7.68 L/kg
SW-620 [19]
  fold change (FC): 1.5
[20]
  AUCt: 7.77202 µg·h/mL
MCF7 [21]
  fold change (FC): 2.1
HCT-116 [22]
  Activity: Active
[8]
  CLH: 7.2 mL/min/g
[23]
  CL/F: 1.38 L/h/kg
[24]
  Cmax: 3.01 µg/mL
HCT-116 [25]
  fold change (FC): 6520
HCT-116 [26]
  IC50: > 9000 nM
[27]
  Tmax: 4.8 min
HCT-116 [28]
  Activity: Active
[29]
  bioavailability: 95.2%
SW-620 [30]
  fold change (FC): 3.3
[31]
  Tmax: 79.8 min
MCF7 [32]
  IC50: > 9000 nM
[33]
  Vdss: 6.49 L/kg

## CN(C)CCCOc1ccc(-c2ccc3ncc(N(C)C(=O)NC4CC4)nc3c2)cn1
HCT-116 [2]
  viability at 1 µM: > 83%
[3]
  half-life at 1 µM: 41 min
HCT-116 [4]
  IC50: 15.3 nM
[5]
  IC50: 8 nM
HCT-116 [6]
  inhibition at 0.01 µM: 43.9%
[7]
  Activity: 114%
[8]
  CLH: 39 mL/min/g
[9]
  Activity: 17%

## Cn1c(=O)n(-c2ccc(C(C)(C)C#N)cc2)c2c3cc(-c4cnc5ccccc5c4)ccc3ncc21 [DACTOLISIB]
[34]
  IC50: 21 nM
[35]
  IC50: 4 nM

## CN(C)CCCOc1ccc(-c2ccc3ncc(N(C)C(=O)Nc4ccccc4Cl)nc3c2)cn1
HCT-116 [2]
  viability at 1 µM: > 83%
[3]
  half-life at 1 µM: 33 min
HCT-116 [4]
  IC50: 4.35 nM
[5]
  IC50: 0.9 nM
HCT-116 [6]
  inhibition at 0.01 µM: 84.4%
[7]
  Activity: 102%
[8]
  CLH: 43 mL/min/g
[9]
  Activity: 3%
